# Results as given in patent publication US20150175712A1, “ANTAGONIST TO AN ENZYME AND/OR A METABOLITE OF THE KYNURENINE PATHWAY” (ImmuSmol SAS, priority 2012, published 2015).
# “Also recorded” adds a separate entry of the source.
# Columns and labels:
# [1] = tested on: CD4 positive helper T cells; assay: Proliferation of helper T cells activated with CD3/CD28 antibodies (CFSE); format: cell-based; settings: 3HAA 100 μM, 96 hours
# Description: FIG. 21: Suppression of anti-proliferative properties of 3HAA on helper T cells by a 3HAA monoclonal antibody (1B10). CD4 positive T cells were activated by anti CD3/CD28 antibodies cocktail and incubated for 96 hours with either vehicle, 3HAA at 100 μM or 3HAA (100 μM)+IgG anti 3HAA.
# We evaluated the ability of the selected anti 3HAA antibody to block the suppressive effect of 3HAA on helper T cells activated with CD3/CD28 cocktail antibodies. Helper T cells were incubated with or without 3HAA and stained with CFSE (carboxyfluorescein succinimidyl ester). […] The selected anti 3HAA antibody is therefore able to inhibit, in vitro, the suppressive effect of 3HAA, e.g. on helper T cells.
# [2] = tested on: tumor; settings: Muller et al 2005; cited from earlier work
# [3] = molecular target: IDO (Homo sapiens, UniProt P14902); settings: Pilotte et al 2012; cited from earlier work
# [4] = tested on: mastocytoma; settings: Pilotte et al 2012; cited from earlier work
# [5] = Pilotte et al 2012; cited from earlier work
# IDO, sequence (P14902 whole entry, species assumed): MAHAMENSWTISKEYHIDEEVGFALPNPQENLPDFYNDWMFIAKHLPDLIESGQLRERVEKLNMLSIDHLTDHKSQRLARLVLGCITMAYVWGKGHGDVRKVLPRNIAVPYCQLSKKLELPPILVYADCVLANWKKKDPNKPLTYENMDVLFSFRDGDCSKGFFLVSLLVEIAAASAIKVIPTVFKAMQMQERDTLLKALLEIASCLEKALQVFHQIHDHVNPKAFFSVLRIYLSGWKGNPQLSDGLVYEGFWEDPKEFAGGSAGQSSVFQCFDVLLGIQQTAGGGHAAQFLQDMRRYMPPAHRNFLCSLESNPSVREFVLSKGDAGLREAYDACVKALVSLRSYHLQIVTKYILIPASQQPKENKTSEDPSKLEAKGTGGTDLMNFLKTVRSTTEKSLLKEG
smiles,measurement,setting,value
"Nc1c(O)cccc1C(=O)O [Clone 3HAA, 3-Hydroxy Anthranilic Acid]",Effect of 3HAA on proliferation of activated helper T cells,[1],blocked cell proliferation; also recorded: anergy of T cells was induced
"Cn1cc(C[C@H](N)C(=O)O)c2ccccc21 [Clone 1MT, 1-Methyl Tryptophan]",anti-tumor benefits when administered alone,[2],weak
"Fc1ccc2c(/C=C/c3nnn[nH]3)c[nH]c2c1 [LM-10, trans-6-Fluoro-3-[2-(1H-tetrazol-5-yl)vinyl]-1H-indole]",IDO inhibition,[3],does not inhibit
same,benefits in experimental model of mastocytoma,[4],benefits
same,solubility compared to 1MT,[5],higher
